These results are taken from patent US11324787B2, “Analytical methods and arrays for use in the same” (SENZAGEN AB, priority 2017, dated 2022).

For data set [1] the following is noted: cited from earlier work; for binary class: sens / non-sens.
The conditions of data set [2]: cited from earlier work; for HP: human potency; for binary class (HP*): based on human potency [41] where available, otherwise according to CLP; for Human potency: class 1 representing highest potency, 6 representing non-sensitizers.
The subject of data set [3] is myeloid cell line derived from MUTZ-3. In words: GARD binary classification (SVM on GARD prediction signature, 200 transcripts).
[4] abbreviates: Table 9, chemicals training set.
Where [5] appears, read: chemicals of random forest training and test set.
[6] abbreviates: CLP annotation of 37 novel chemicals.
Where [7] appears, read: Table 8 chemical list, GARD SVM decision value.

Read-outs that look alike come from different tables or passages of the source.

`O=[N+]([O-])c1ccc(Cl)c([N+](=O)[O-])c1` [2,4-dinitrochlorobenzene]: the CLP in data set [1] (11 benchmark chemicals), in data set [1] (setting [4]) and in data set [1] (setting [5]) was 1A throughout. In addition, the binary class result in data set [1] (11 benchmark chemicals) and in data set [1] (setting [5]) was “sens” in each case. Also, the HP in data set [2] (11 benchmark chemicals) and in data set [2] (setting [5]) was 1 each time.

`O=[N+]([O-])c1ccc(F)c([N+](=O)[O-])c1` [2,4-dinitrofluorobenzene, 2,4-Dinitrofluorobenzene]: the CLP in data set [1] (setting [6]), in data set [1] (setting [4]) and in data set [1] (setting [5]) was 1A each time. Further, the binary class entry in data set [1] (setting [5]) is “sens”. In addition, in data set [3] (SVM, median calibrated decision value of replicates >0 = sensitizer), the GARD binary prediction result was “S”. For the same compound, in data set [2], the “binary class (HP*)” value was “S (HP 1-4 = S)”.

In the case of `Nc1ccccc1O` [2-aminophenol], in data set [3] (setting [7]), the “SVM DV” value is on record as 5.98. Besides, the HP in data set [2] (11 benchmark chemicals) and in data set [2] (setting [5]) was 2 throughout. In addition, the Human potency in data set [2] was 2.

Take `C=CC(=O)OCCO` [2-hydroxyethyl acrylate]: the “SVM DV” value in data set [3] (setting [7]) is listed as 8.87.

Turning to `Sc1nc2ccccc2s1` [2-mercaptobenzothiazole], the CLP in data set [1] (setting [4]) was 1A. In data set [1] (setting [5]), the CLP is 1A and the binary class result is recorded as “sens”. Moreover, the “SVM DV” value in data set [3] (setting [7]) is 2.52. The Human potency in data set [2] was 3. For the same compound, in data set [2] (setting [5]), the HP is given as 3.

For `O=[N+]([O-])c1ccc(CBr)cc1` [4-nitrobenzylbromide], the CLP in data set [1] (setting [4]) is given as 1A. Further, in data set [1] (setting [5]), the CLP was 1A and the binary class entry was “sens”.

In the case of `OC/C=C/c1ccccc1` [Cinnamic alcohol], the “SVM DV” value in data set [3] (setting [7]) is on record as 2.94. Further, in data set [2], the Human potency is 3.

As for `Nc1ccc(C(=O)O)cc1` [PABA], the “SVM DV” value in data set [3] (setting [7]) is given as −1.04. The Human potency in data set [2] was 5.

On to `Nc1ccc(N)cc1` [PPD], for which, in data set [3] (setting [7]), the “SVM DV” value is on record as 5.32. Also, the Human potency in data set [2] is recorded as 1.

With `CC1(C)S[C@@H]2[C@H](NC(=O)Cc3ccccc3)C(=O)N2[C@H]1C(=O)O` [Penicillin G], the “SVM DV” value in data set [3] (setting [7]) was 1.06. Also, the Human potency in data set [2] is given as 3.

On to `CC(O)CO` (stereo not drawn) [Propylene glycol], for which the “SVM DV” value in data set [3] (setting [7]) was −1.18. Besides, the Human potency in data set [2] is recorded as 5.

On to `CCCCCCCCCCCCOS(=O)(=O)[O-].[Na+]` [Sodium lauryl sulfate], for which, in data set [3] (setting [7]), the “SVM DV” value was −1.52.

For the compound `CCCCCCCC/C=C\CCCCCCCC(=O)OCCOCC(OCCO)C1OCC(OCCO)C1OCCO` (stereo not drawn) [Tween 80], the CLP entry in data set [1] (setting [4]) and in data set [1] (setting [5]) was “no cat” throughout. Besides, the binary class entry in data set [1] (setting [5]) is “non-sens”. Besides, in data set [3] (setting [7]), the “SVM DV” value is given as −1.39. In addition, the Human potency in data set [2] was 6. Moreover, the HP in data set [2] (setting [5]) is on record as 6.

As for `O=Cc1ccccc1` [benzaldehyde], the “SVM DV” value in data set [3] (setting [7]) was −2.13.

In the case of `Clc1ccccc1` [chlorobenzene], the “SVM DV” value in data set [3] (setting [7]) is recorded as −1.63.

For the compound `OCC=Cc1ccccc1` [cinnamyl alcohol], the CLP in data set [1] (setting [4]) and in data set [1] (setting [5]) was 1B throughout. For the same compound, the binary class entry in data set [1] (setting [5]) is given as “sens”. The HP in data set [2] (setting [5]) is listed as 3.

As for `C[S+](C)[O-]` [dimethyl sulfoxide], in data set [1] (setting [5]), the CLP entry is “no cat” and the binary class result was “non-sens”. Also, in data set [2] (setting [5]), the HP is recorded as 6.

For `O=c1c(-c2ccccc2)c1-c1ccccc1` [diphenylcyclopropenone], in data set [1] (setting [4]), the CLP was 1A. Also, in data set [1] (setting [5]), the CLP was 1A and the binary class entry is reported as “sens”. Moreover, in data set [2] (setting [5]), the HP is recorded as 1.

For `NCCN` [ethylenediamine], the “SVM DV” value in data set [3] (setting [7]) is 1.12.

`C=CCc1ccc(O)c(OC)c1` [eugenol]: the “SVM DV” value in data set [3] (setting [7]) is recorded as 1.02.

Take `C=O` [formaldehyde]: the “SVM DV” value in data set [3] is given as 2.32.

On to `CC(C)=CCC/C(C)=C/CO` [geraniol], for which, in data set [3] (setting [7]), the “SVM DV” value is 1.76.

For `OCC(O)CO` [glycerol], in data set [3] (setting [7]), the “SVM DV” value is −2.05. The Human potency in data set [2] is recorded as 6. In data set [2] (setting [5]), the HP was 6.

Regarding `O=CC=O` [glyoxal], the “SVM DV” value in data set [3] (setting [7]) is recorded as 1.08.

Regarding `CCCCCC` [hexane], the CLP result in data set [1] (setting [4]) is “no cat”. Moreover, in data set [1] (setting [5]), the CLP entry is reported as “no cat” and the binary class entry is “non-sens”. The HP in data set [2] (setting [5]) is 6.

On to `CCCCCCC(C=O)=Cc1ccccc1` [hexylcinnamic aldehyde], for which the CLP in data set [1] (11 benchmark chemicals), in data set [1] (setting [4]) and in data set [1] (setting [5]) was 1B each time. Further, the binary class entry in data set [1] (11 benchmark chemicals) and in data set [1] (setting [5]) was “sens” throughout. Besides, the “SVM DV” value in data set [3] (setting [7]) is 1.24. For the same compound, the HP in data set [2] (11 benchmark chemicals) and in data set [2] (setting [5]) was 5 throughout. Besides, in data set [2], the Human potency is 5.

`Oc1ccc(O)cc1` [hydroquinone]: the CLP in data set [1] (setting [4]) is on record as 1A. In data set [1] (setting [5]), the CLP is 1A and the binary class result is recorded as “sens”. Besides, in data set [2] (setting [5]), the HP is 3.

As for `CC(CC=O)CCCC(C)(C)O` (stereo not drawn) [hydroxycitronellal], the CLP in data set [1] (setting [4]) and in data set [1] (setting [5]) was 1B throughout. The binary class entry in data set [1] (setting [5]) is given as “sens”. The HP in data set [2] (setting [5]) was 4.

As for `CC=Cc1ccc(O)c(OC)c1` [isoeugenol], the CLP in data set [1] (setting [4]) is 1A. Also, in data set [1] (setting [5]), the CLP was 1A and the binary class result was “sens”. Moreover, the HP in data set [2] (setting [5]) is recorded as 2.

In the case of `CC(C)O` [isopropanol], the CLP result in data set [1] (setting [4]) is reported as “no cat”. In data set [1] (setting [5]), the CLP entry was “no cat” and the binary class result is given as “non-sens”. The “SVM DV” value in data set [3] (setting [7]) is −1.37. For the same compound, the Human potency in data set [2] is 5. For the same compound, the HP in data set [2] (setting [5]) is 5.

As to `NC[C@H]1O[C@H](O[C@H]2[C@H](O)[C@@H](O[C@H]3O[C@H](CO)[C@@H](O)[C@H](N)[C@H]3O)[C@H](N)C[C@@H]2N)[C@H](O)[C@@H](O)[C@@H]1O` [kanamycin A], the CLP entry in data set [1] (setting [4]) is recorded as “no cat”. In data set [1] (setting [5]), the CLP result is reported as “no cat” and the binary class entry was “non-sens”. The “binary class (HP*)” value in data set [2] is “NS (5-6 = NS)”.

As to `CC(O)C(=O)O` (stereo not drawn) [lactic acid], in data set [3] (setting [7]), the “SVM DV” value is on record as −2.38. The HP in data set [2] (setting [5]) is reported as 6.

For `CCCCCCCCCCCCOC(=O)c1cc(O)c(O)c(O)c1` [lauryl gallate], in data set [1] (setting [4]), the CLP was 1A. Moreover, in data set [1] (setting [5]), the CLP was 1A and the binary class entry was “sens”. Besides, the HP in data set [2] (setting [5]) is reported as 2.

With `CC(C=O)Cc1ccc(C(C)(C)C)cc1` (stereo not drawn) [lilial], the CLP in data set [1] (setting [6]), in data set [1] (setting [4]) and in data set [1] (setting [5]) was 1B in each case. Besides, the binary class entry in data set [1] (setting [5]) is recorded as “sens”. The “binary class (HP*)” value in data set [2] is “S (HP 1-4 = S)”.

Regarding `COC(=O)c1ccccc1O` [methyl salicylate], the CLP result in data set [1] (setting [4]) is listed as “no cat”. In data set [1] (setting [5]), the CLP entry is reported as “no cat” and the binary class entry was “non-sens”. In addition, in data set [3] (setting [7]), the “SVM DV” value is reported as −1.53. Besides, the Human potency in data set [2] is given as 5. Besides, in data set [2] (setting [5]), the HP is 5.

Regarding `N#CCCC(Br)(C#N)CBr` (stereo not drawn) [methyldibromo glutaronitrile], the CLP in data set [1] (setting [4]) is 1A. In data set [1] (setting [5]), the CLP was 1A and the binary class entry is listed as “sens”. Moreover, the HP in data set [2] (setting [5]) is given as 2.

For `CCCCCCCC(=O)O` [octanoic acid], the CLP result in data set [1] (setting [4]) and in data set [1] (setting [5]) was “no cat” in each case. The binary class result in data set [1] (setting [5]) was “non-sens”. In addition, in data set [3] (setting [7]), the “SVM DV” value is reported as −1.19. Besides, in data set [2], the Human potency is 6. In data set [2] (setting [5]), the HP is on record as 6.

In the case of `O=C(O)c1ccc(O)cc1` [p-hydroxybenzoic acid], the CLP entry in data set [1] (setting [4]) is listed as “no cat”. In data set [1] (setting [5]), the CLP result is listed as “no cat” and the binary class entry is given as “non-sens”.

`Nc1ccc(N)cc1` [p-phenylenediamine]: the CLP in data set [1] (11 benchmark chemicals), in data set [1] (setting [4]) and in data set [1] (setting [5]) was 1A in each case. Moreover, the binary class entry in data set [1] (11 benchmark chemicals) and in data set [1] (setting [5]) was “sens” in each case.

Regarding `Oc1ccccc1` [phenol], the “SVM DV” value in data set [3] is −1.08.

In the case of `O=C(Oc1ccccc1)c1ccccc1` [phenyl benzoate], the CLP in data set [1] (setting [4]) is 1B. Further, in data set [1] (setting [5]), the CLP was 1B and the binary class entry was “sens”. In addition, the HP in data set [2] (setting [5]) is on record as 3.

Turning to `O=CCc1ccccc1` [phenylacetaldehyde], in data set [1] (setting [4]), the CLP is 1B. In data set [1] (setting [5]), the CLP is reported as 1B and the binary class result was “sens”.

Turning to `[K+].[K+].[O]=[Cr](=[O])([O-])[O][Cr](=[O])(=[O])[O-]` [potassium dichromate], the CLP in data set [1] (setting [4]) is given as 1A. Besides, in data set [1] (setting [5]), the CLP is listed as 1A and the binary class entry is on record as “sens”.

Regarding `CCCOC(=O)c1cc(O)c(O)c(O)c1` [propyl gal late], the CLP in data set [1] (Table 10, chemicals test set 1) was 1A.

As for `Oc1cccc(O)c1` [resorcinol], the “SVM DV” value in data set [3] (setting [7]) is recorded as 1.03. Moreover, the HP in data set [2] (11 benchmark chemicals) and in data set [2] (setting [5]) was 4 each time. In addition, the Human potency in data set [2] is 4.

For the compound `O=C(O)c1ccccc1O` [salicylic acid], the “SVM DV” value in data set [3] (setting [7]) is given as −1.41. The Human potency in data set [2] is 6. Also, the HP in data set [2] (setting [5]) was 6.

With chloroanilin, the CLP in data set [1] (setting [4]) was 1B. Further, in data set [1] (setting [5]), the CLP is given as 1B and the binary class entry is reported as “sens”.

With xylene, the HP in data set [2] (setting [5]) is given as 6. Besides, the “Human potency [41]” value in data set [2] (test set) was 6.
